From US10654866B2, “Selective estrogen receptor degraders” (Eli Lilly and Company, priority 2018, dated 2020)

How the values were obtained:
ERα (Y537S mutant) = ERα (Y537S mutant) (Homo sapiens (Human), UniProt P03372, Y537S); experiment: ERα (Y537S mutant) competition binding assay; conditions: 3H-estradiol competition; Ki from IC50 by Cheng-Prusoff
Experimental: (§1) Add the test compound at 10 different concentrations ranging from 10,000 nM to 0.5 nM, and determine nonspecific binding in the presence of 1 μM of 1713 estradiol. Incubate the binding reaction (140 μL) for 4 hours at room temperature, and then add cold dextran-charcoal buffer (70 μL) (containing per 50 mL of assay buffer, 0.75 g of charcoal and 0.25 g of dextran) to each reaction. Mix the plates for 8 minutes on an orbital shaker at 4° C. and then centrifuge at 3000 rpm at 4° C. for 10 minutes. Transfer an aliquot (120 μL) of the mixture to another 96-well, white flat bottom plate (Costar) and add Perkin Elmer Optiphase Supermix scintillation fluid (175 μL) to each well. Seal the plates and shake vigorously on an orbital shaker. After an incubation of 2.5 hours, read the plates in a Wallac Microbeta counter. […] Convert the IC50 values for the compound to Ki using Cheng-Prusoff equation.

[1] = target: Y537N mutant ERα receptor (Homo sapiens, UniProt P03372, Y537N); experiment: PRα inhibition (ERα functional antagonism) cell assay in MCF7-ESR1 Y537N 682 CRISPR cells; type: cell-based; conditions: MCF7 Y537N 682 CRISPR cells, 72 hours, % PR positive cells; read-out: Relative IC50
Experimental: An antagonist in this assay is expected to block the function of the ERα receptor.
Incubate the cells overnight in a cell culture incubator (5% CO2, 95% relative humidity and 37° C.) and allow the cells to attach to the plate. The following day dose the cells with the test compound. Use an Echo 555 acoustic dispenser to prepare compound serial dilutions (1:3) in a range from 6 μM to 0.0003 μM. Dose the cells with the addition of 5 μL from the serial dilution plate to the cell plate producing a final DMSO concentration of 0.2% with a final test compound concentration dose range between 2 and 0.0001 μM. For the maximum point use media containing 0.2% of DMSO and for the minimum point, use fulvestrant diluted at 2 μM final concentrations in the growth media containing 0.2% DMSO. After dosing with test compound, incubate the cell plates at 37° C. and 5% CO2 for 72 hours. Fix the cells by adding 14% para-formaldehyde (10 μL) for 30 minutes at room temperature. Wash the cells with PBS (1×20 μL) and incubate with PBS (20 μL) of containing 0.5% (v/v) TWEEN® 20 for 1 hour. Wash the cells with PBS (2×20 μL) 0.05% TWEEN® 20, and block with 3% BSA/PBS 0.05% TWEEN® 20, 0.1% TRITON™ X-100 (20 μL/well) for 1 hour at room temperature. Add 1:500 primary antibody (20 μL) (PR monoclonal mouse anti-human antibody, clone PgR 636 Dako, M3569) dilution in 1% BSA/PBS 0.05 TWEEN® 20 per well, seal the plates and incubate overnight at 4° C.
The following day, wash the cells with PBS […] (2×20 μL) and incubate with secondary antibody (20 μL/well) (1:1000 dilution, Goat anti-rabbit IgM ALEXA FLUOR™ 488) in PBS 1% BSA for 105 minutes at room temperature. […] Seal the plates and incubate 1 hour at room temperature on the bench (preserved from light). Scan the plates with ACUMEN EXPLORER™ [Laser-scanning fluorescence microplate cytometer manufactured by TTP LABTECH LTD] to measure PRα. Image analysis is based on cellular fluorescent signals for identifying positive cells. Identify PR positive cells by mean intensity. Use total intensity at 575-640 nm from propidium iodide/DNA to identify individual cells. Assay output is % PR positive cells. Determine the IC50 by curve fitting to a four parameter logistic for each output using GENE DATA™.

ERα [2] = target: T1, ERα (Homo sapiens (Human), UniProt P03372); experiment: ERα degradation assay in MCF7 cells; type: cell-based; conditions: 24 hours, % ER positive cells, read-out: Relative IC50
T1 sequence (P03372 whole entry): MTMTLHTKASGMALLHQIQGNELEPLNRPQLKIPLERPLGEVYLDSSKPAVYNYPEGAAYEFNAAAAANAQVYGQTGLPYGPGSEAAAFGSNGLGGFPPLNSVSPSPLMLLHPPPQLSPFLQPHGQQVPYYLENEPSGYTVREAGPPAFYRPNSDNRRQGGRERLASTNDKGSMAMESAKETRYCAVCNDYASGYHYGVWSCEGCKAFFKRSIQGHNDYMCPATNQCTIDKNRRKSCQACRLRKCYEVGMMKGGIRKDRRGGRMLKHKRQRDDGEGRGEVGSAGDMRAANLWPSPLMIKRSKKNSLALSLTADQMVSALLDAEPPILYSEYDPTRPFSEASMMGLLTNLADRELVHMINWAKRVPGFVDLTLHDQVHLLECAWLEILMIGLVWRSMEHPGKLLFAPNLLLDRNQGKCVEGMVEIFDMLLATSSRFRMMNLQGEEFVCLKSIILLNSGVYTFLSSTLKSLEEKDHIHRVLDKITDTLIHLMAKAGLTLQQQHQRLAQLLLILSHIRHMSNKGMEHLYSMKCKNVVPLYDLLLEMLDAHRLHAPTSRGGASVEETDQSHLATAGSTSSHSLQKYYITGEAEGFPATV
Experimental: The purpose of the following ERα degradation assay is to measure the degradation of ERα by a test compound in an ERα positive breast cancer cell line such as MCF7.
Culture MCF7 (purchased from ATCC HTB-22) cells in DMEM media supplemented with 10% FBS, 0.01 mg/mL human insulin 1 and 1% penicillin/streptomycin antibiotics and plate in 384-well flat-bottom plates at a density of 4,000 cells per well in phenol red free DMEM media (20 μL) containing 10% charcoal stripped FBS. Incubate the cells overnight in a cell culture incubator (5% CO2, 95% relative humidity and 37° C.) and allow the cells to attach to the plate. The following day dose the cells with the test compound. Use an Echo 555 acoustic dispenser to prepare test compound serial dilutions (1:3) in a range from 6 μM to 0.0003 μM. Dose the cells with the addition of 5 μL from the serial dilution plate to the cell plate producing a final DMSO concentration of 0.2% with a final test compound concentration dose range between 2 and 0.0001 μM. For the maximum point, use media containing 0.2% of DMSO and for the minimum point, use fulvestrant diluted at 2 μM final concentrations in the growth media containing 0.2% DMSO. After dosing with the test compound, incubate the cell plates at 37° C. and 5% CO2 for 24 hours. Fix the cells by adding 14% para-formaldehyde (10 μL) for 30 minutes at room temperature. Wash the cells once with PBS (20 μL) and incubate with PBS (20 μL) containing 0.5% (v/v) TWEEN® 20 for 1 hour. Wash the cells with PBS containing 0.05% TWEEN® 20 (2×) and block with 3% BSA in PBS containing 0.05% TWEEN® 20 and 0.1% TRITON™ X-100 (20 μL/well) for 1 hour at room temperature. Add 1:500 Primary antibody (20 μL) (ERα (Clone SP1) monoclonal rabbit antibody # RM-9101-S, Thermo Scientific) dilution in 1% BSA in PBS containing 0.05% TWEEN® 20 per well, seal the plates and incubate overnight at 4° C. The following day wash the cells with PBS containing 0.05% TWEEN® 20 (2×) and incubate with secondary antibody (20 μL/well) (1:1000 dilution, Goat anti-rabbit IgM ALEXA FLUOR™ 488) in PBS 1% BSA for 105 minutes at room temperature. […] Seal the plates and incubate 1 hour at room temperature on the bench (preserved from light). Scan the plates with ACUMEN EXPLORER™ [Laser-scanning fluorescence microplate cytometer manufactured by TTP LABTECH LTD] to measure ERα. Image analysis is based on cellular fluorescent signals for identifying positive cells. Identify ER positive cells by mean intensity. Use total intensity at 575-640 nm from propidium iodide/DNA to identify individual cells. Assay output is % ER positive cells. Determine the IC50 by curve fitting to a four parameter logistic for each output using GENE DATA™.

ERα (wild type) = ERα (wild type) (Homo sapiens (Human), UniProt P03372); experiment: ERα (wild type) competition binding assay; conditions: 3H-estradiol competition; Ki from IC50 by Cheng-Prusoff
Chain of ERα (wild type) (P03372 whole entry): as above
Experimental: as §1

ERα [3] = target: T1, ERα; experiment: PRα inhibition (ERα functional antagonism) cell assay in MCF7 cells; type: cell-based; conditions: MCF7 cells pretreated with 0.47 nM estradiol, % PRα positive cells; read-out: Relative IC50
Description: The purpose of the following PRα inhibition (ERα functional antagonism) cell assay is to determine the antagonistic activity of a test compound against the ERα receptor. An antagonist in this assay is expected to block the function of the ERα receptor.
Carry out the assay conditions as detailed in the ERα degradation Cell base Acumen assay above, using the MCF7 cell line except that, prior to test compound dispensing, remove the media from the cell plate and pretreat all wells except for the negative control wells (column 24 of the plate) with assay media containing 0.47 nM estradiol for 30 minutes. In this assay, carry out immunostaining for the detection of PRα and scan the plates with ACUMEN EXPLORER™ [Laser-scanning fluorescence microplate cytometer manufactured by TTP LABTECH LTD] to measure PRα. Image analysis is based on cellular fluorescent signals for identifying positive cells. Identify PRα positive cells by mean intensity. Use total intensity at 575-640 from propidium iodide/DNA to identify individual cells. Assay output is % PRα positive cells. Determine the IC50 by curve fitting to a four parameter logistic for each output using GENE DATA™.

[4] = test system: MCF7 ER-positive breast cancer model; experiment: In vivo combination studies in MCF7 ER-positive breast cancer xenograft model; parameters: species or system mice; conditions: for Difference (Treatment 1 − Treatment 2): Treatment 1 = Vehicle, log10 tumor volume
Description: Otherwise, the statistical conclusion is additive.

Chain of ERα (Y537S mutant) (P03372 whole entry Y537S): as the sequence (P03372 whole entry) above, with Y537S counted along it

## Oc1ccc2c3c(cnc2c1)-c1ccc(Cl)cc1OC3c1ccc(OCCN2CC(CF)C2)cc1 (racemic) [Example 3, 8-chloro-5-(4-{2-[3-(fluoromethyl)azetidin-1-yl]ethoxy}phenyl)-5H-[1]benzopyrano[4,3-c]quinolin-2-ol]
ERα (Y537S mutant)
  Ki: 6.69 nM
[1]
  IC50: 77.2 ± 11.5 nM
ERα [2]
  DC50: 33.5 ± 7.83 nM
ERα (wild type)
  Ki: 2.36 nM

## Oc1ccc2c3c(cnc2c1)-c1ccc(Cl)cc1OC3c1ccc(OCCN2CC(CF)C2)cc1 (single isomer, unassigned) [Example 3A, 8-Chloro-5-(4-{2-[3-(fluoromethyl)azetidin-1-yl]ethoxy}phenyl)-5H-[1]benzopyrano[4,3-c]quinolin-2-ol]
ERα (Y537S mutant)
  Ki: 27.2 nM
[1]
  IC50: 612 nM
ERα [2]
  DC50: 390 nM
ERα (wild type)
  Ki: 8.11 nM
ERα [3]
  IC50: 927 nM

## Oc1ccc2c3c(cnc2c1)-c1ccc(Cl)cc1OC3c1ccc(OCCN2CC(CF)C2)cc1 (single isomer, unassigned) [Example 3B, 8-Chloro-5-(4-{2-[3-(fluoromethyl)azetidin-1-yl]ethoxy}phenyl)-5H-[1]benzopyrano[4,3-c]quinolin-2-ol]
ERα (Y537S mutant)
  Ki: 2.79 nM
[1]
  IC50: 16 nM
ERα [2]
  DC50: 8.66 nM
ERα (wild type)
  Ki: 0.59 nM
ERα [3]
  IC50: 34.4 nM

## CCN1CCN(Cc2ccc(Nc3ncc(F)c(-c4cc(F)c5nc(C)n(C(C)C)c5c4)n3)nc2)CC1 [Abemaciclib, abemaciclib, reference compound]
[4]; Example 1B 10 mpk, Abemaciclib 50 mpk, QD × 42, PO (Table 16)
  Delta T/C % or % Regression: −52%
[4]; Example 10 15 mpk, Abemaciclib 50 mpk, QD × 42, PO (Table 20)
  Delta T/C % or % Regression: −70%
[4]; Example 1B 10 mpk, Abemaciclib 50 mpk, QD × 42, PO
  Difference (Treatment 1 − Treatment 2): 0.479
[4]; Example 10 15 mpk, Abemaciclib 50 mpk, QD × 42, PO
  Difference (Treatment 1 − Treatment 2): 0.445

## CO[C@@H](C)Cn1c(=O)n(C)c2cnc3ccc(-c4cncc(C(C)(C)O)c4)cc3c21 [Compound A, 8-[5-(1-hydroxy-1-methylethyl)pyridin-3-yl]-1-[(2 S)-2-methoxypropyl]-3-methyl-1,3-dihydro-2H-imidazo[4,5-c]quinolin-2-one, reference compound]
[4]; Example 1B 10 mpk QD × 42, Compound A 7.5 mpk BID × 42, PO (Table 18)
  Delta T/C % or % Regression: −36%
[4]; Example 1B 10 mpk QD × 42, Compound A 7.5 mpk BID × 42, PO
  Difference (Treatment 1 − Treatment 2): 0.504

## CO[C@H]1C[C@@H]2CC[C@@H](C)[C@@](O)(O2)C(=O)C(=O)N2CCCC[C@H]2C(=O)O[C@H]([C@H](C)C[C@@H]2CC[C@@H](OCCO)[C@H](OC)C2)CC(=O)[C@H](C)/C=C(\C)[C@@H](O)[C@@H](OC)C(=O)[C@H](C)C[C@H](C)/C=C/C=C/C=C/1C [Everolimus, everolimus, reference compound]
[4]; Example 10 15 mpk, Everolimus 5 mpk, QD × 42, PO (Table 24)
  Delta T/C % or % Regression: −50%
[4]; Example 10 15 mpk, Everolimus 5 mpk, QD × 42, PO
  Difference (Treatment 1 − Treatment 2): 0.433

## Cc1nc(NC(=O)N2CCC[C@H]2C(N)=O)sc1-c1ccnc(C(C)(C)C(F)(F)F)c1 [alpelisib, reference compound]
[4]; Example 10 15 mpk, alpelisib 15 mpk (d1-d7), 10 mpk (d8-42), QD × 42, PO (Table 22)
  Delta T/C % or % Regression: −21%
[4]; Example 10 15 mpk, alpelisib 15 mpk (d1-d7), 10 mpk (d8-42), QD × 42, PO
  Difference (Treatment 1 − Treatment 2): 0.445
